Consider two compounds from US9499493B2, “2,4-pyrimidinediamine compounds and their uses” (Rigel Pharmaceuticals, Inc., priority 2002, dated 2016).

SMILES strings stand for the structures.

Assay [1] concerns bone marrow derived mast cells (BMMC). Briefly: BMMC high cell density ionomycin activation: hexosaminidase. The assay is classed as cell-based, mouse. As to conditions: second part of TABLE 1, read-out: BMMC Ionomycin hexos. IC50.
The test system of assay [2] is basophil cells. Briefly: Basophil ionomycin activation: histamine release assay. The note with it: Basophils. The assay is classed as cell-based, human. The method, then:
(§1) The basophil activation assay was carried out using whole human peripheral blood from donors allergic to dust mites with the majority of the red blood cells removed by dextran sedimentation. Human peripheral blood was mixed 1:1 with 3% dextran T500 and RBCs were allowed to settle for 20-25 min. The upper fraction was diluted with 3 volumes of D-PBS and cells were spun down for 10 min at 1500 rpm, RT. Supernatant was aspirated and cells were washed in an equal volume MT-buffer. Finally, cells were resuspended in MT-buffer containing 0.5% DMSO in the original blood volume. 80 uL cells were mixed with 20 uL compound in the presence of 0.5% DMSO, in triplicate, in a V-bottom 96-well tissue culture plate. A dose range of 8 compound concentrations was tested resulting in a 10-point dose response curve including maximum (stimulated) and minimum (unstimulated) response. […] The cells were stimulated for 30 minutes at 37° C., 5% CO2. The plate was spun for 10 min at 1500 rpm at room temperature and 80 uL the supernatant was harvested for histamine content analysis using the histamine ELISA kit supplied by Immunotech. The ELISA was performed according to supplier's instructions.
Assays for ionomycin-induced basophil cell degranulation were carried out as described for the Basophil IgE or Dustmite Activation Assay (Section 6.4.6, supra), with the exception that following incubation with compound, cells were stimulated with 20 μl of 2 μM ionomycin.

Assay [3] concerns basophil cells. Briefly: Basophil IgE activation: histamine release assay. The assay is classed as cell-based, human. The note with it: Basophils, anti-IgE. How it is done:
as §1

Assay [4] concerns bone marrow derived mast cells (BMMC). Briefly: BMMC high cell density IgE activation: hexosaminidase. In kind it is cell-based, mouse. The note with it: anti-IgE, second part of TABLE 1, read-out: BMMC anti-IgE hexos. IC50. Summed up: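 IgE-sensitized BMMC at 1-3×10^6 cells/ml preincubated 1 hour at 37° C. with compound (0.5% DMSO), then stimulated 1 hour with DNP-BSA (6× stimulus 60 ng/ml). Supernatant hexosaminidase measured with 2 mM 4-methylumbelliferyl-N-acetyl-glucosaminide substrate at 37° C., read at 5–30 minutes.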

The test system is the same in assay [5]. Briefly: BMMC high cell density IgE activation: TNFalpha. The assay is classed as cell-based, mouse. The note with it: anti-IgE, second part of TABLE 1, read-out: BMMC anti-IgE TNF-alpha IC50. An outline of the steps:
(§2)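 IgE-sensitized BMMC (1-3×10^6 cells/ml, MT buffer) were pretreated with compound for 1 h at 37 °C in 0.5% DMSO, then stimulated with DNP-BSA (6× stimulus, 60 ng/ml) for 1 h. Supernatant was taken, and cells were re-incubated 4–5 h in WEI-conditioned medium with compound. Mediators were quantified by ELISA.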

The next assay has as its system B-cell line BJAB. Briefly: BJAB toxicity, Cell Titer Glo assay. The assay is classed as cell-based. The note with it: 18 hours incubation. How it is done: Seed 50 μl cells (1×10^6/ml) into each well containing 50 μl compound. The final vehicle concentration is 0.5% DMSO, 1.5% MeOH. Shake plates for 1 minute to mix cells and compound. Incubate plates at 37° C. (5% CO2) for 18 hours. Next day, harvest 50 μl cells from each well, add to 50 μl Cell Titer Glo reagent ([…]). Shake plates for 1 minute. Read on luminometer.

Assay [6] is described as follows: Immediacy (time course) of inhibitory activity. The assay is classed as cell-based. As to conditions: FIG. 5.
A further assay has as its system Jurkat cells. Briefly: Jurkat toxicity, Cell Titer Glo assay. In kind it is cell-based. The note with it: 18 hours incubation. The method, then:
Seed 50 μl cells (1×10^6/ml) into each well containing 50 μl compound. […] Shake plates for 1 minute to mix cells and compound. Incubate plates at 37° C. […] Next day, harvest 50 μl cells from each well, add to 50 μl Cell Titer Glo reagent ([…]). Shake plates for 1 minute. Read on luminometer.

The subject of assay [7] is cultured human mast cells (CHMC). Briefly: CHMC high cell density IgE activation: histamine. In kind it is cell-based. As to conditions: anti-IgE activation. Summed up:
(§3)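 IgE-sensitized CHMC at 1-2×10^6 cells/ml were pretreated with compound for 1 h at 37 °C (0.5% DMSO final), then anti-IgE-stimulated for 1 h and supernatant collected. Hexosaminidase was read with a fluorogenic substrate. Pellets were re-incubated 7 h with compound before supernatant ELISAs.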

For assay [8] the test system is unchanged. Briefly: CHMC low cell density ionomycin activation: tryptase assay. The assay is classed as cell-based.
Assay [9] has as its system bone marrow derived mast cells (BMMC). Briefly: BMMC high cell density IgE activation: LTC4. In kind it is cell-based, mouse. The note with it: anti-IgE, second part of TABLE 1. Summed up:
as §2

The test system is the same in assay [10]. Briefly: BMMC high cell density IgE activation: histamine. The note with it: anti-IgE, second part of TABLE 1. In kind it is cell-based, mouse. Summed up:
as §2

Assay [11] can be described thus: Sheep model of allergic asthma (Ascaris suum challenge). The assay is classed as in vivo. The note with it: aqueous suspension. The method, then: Sheep develop bronchoconstriction within minutes of exposure to inhaled antigen (Ascaris suum), with maximal airflow obstruction during the early allergic response (EAR). Release of preformed mast cell mediators is likely responsible for this early phase of airflow obstruction. […] In the sheep, AHR develops a few hours following antigen challenge, and can persist for up to 2 weeks.
In the sheep model of allergic asthma, sheep are administered aerosols of test article via an endotracheal tube, followed by an aerosol challenge with antigen extracted from the roundworm, Ascaris suum, to which the sheep are naturally allergic. Allergen challenge leads to direct bronchoconstriction (both EAR and LAR) and a persistent non-specific AHR. These three characteristics are similar to those seen in human allergic asthmatics. The activity of the test agent is determined by changes in the lung resistance (RL), which is calculated from measurements of transpulmonary pressure, flow, and respiratory volume. […] The LAR is a less pronounced increase in RL, which starts approximately 5-6 hours following allergen challenge and is resolved by 8 hours post-challenge. Twenty-four hours after the challenge, a dose response to carbachol is measured to determine the AHR, which is expressed as the dose of carbachol required to increase RL by 400% over baseline. (This measurement is referred to as the provocative concentration of carbachol that elicits a 400% increase in RL over baseline (PC400). The data are compared to historical control data for the same individual when administered a saline control aerosol and challenged with Ascaris suum.

Assay [12] concerns cultured human mast cells (CHMC). Briefly: CHMC high cell density IgE activation: TNFalpha. In kind it is cell-based. As to conditions: anti-IgE activation; read-out: CHMC high density TNF-alpha. How it is done: Inhibition of degranulation was measured at both low and high cell density by quantifying the release of the granule specific factors tryptase, histamine and hexosaminidase. Inhibition of release and/or synthesis of lipid mediators was assessed by measuring the release of leukotriene LTC4 and inhibition of release and/or synthesis of cytokines was monitored by quantifying TNF-α, IL-6 and IL-13. Tryptase and hexosaminidase were quantified using fluorogenic substrates as described in their respective examples. […] The protocols of the various assays are provided below.
After sensitizing, cells are counted, pelleted (1000 rpm, 5-10 minutes), and resuspended at 1-2×10^6 cells/ml in MT buffer. Add 100 ul of cell suspension to each well and 100 ul of compound dilutions. The final vehicle concentration is 0.5% DMSO. Incubate at 37° C. (5% CO2) for 1 hour. After 1 hour of compound treatment, stimulate cells with 6× anti-IgE. Mix wells with the cells and allow plates to incubate at 37° C. (5% CO2) for one hour. After 1 hour incubation, pellet cells (10 minutes, 1000 RPM) and collect 200 ul per well of the supernatant, being careful not to disturb pellet. Place the supernatant plate on ice. During the 7-hour step (see next) perform tryptase assay on supernatant that had been diluted 1:500. Resuspend cell pellet in 240 ul of CM media containing 0.5% DMSO and corresponding concentration of compound. Incubate CHMC cells for 7 hours at 37° C. (5% CO2). After incubation, pellet cells (1000 RPM, 10 minutes) and collect 225 ul per well and place in −80° C. until ready to perform ELISAS. ELISAS are performed on appropriately diluted samples (determined empirically for each donor cell population so that the sample measurement falls within the standard curve) following the supplier's instructions.

The test system is the same in assay [13]. Briefly: CHMC high cell density IgE activation: hexos (hexosaminidase) release. In kind it is cell-based. As to conditions: anti-IgE activation. An outline of the steps: as §3
Setting [14] is: 45 mg/sheep, pretreatment 60 min.

Take `Fc1cnc(Nc2ccc3c(c2)OC(F)(F)C(F)(F)O3)nc1Nc1ccc2c(c1)OC(F)(F)C(F)(F)O2` [R926037, N2,N4-Bis(3,4-tetrafluoroethylendioxyphenyl)-5-fluoro-2,4-pyrimidinediamine]: the IC50 (in [1]; with basophil cells [2]; with basophil cells [3]; in [4]) was more than 10000 nM throughout.

As to `CNC(=O)COc1cccc(Nc2ncc(F)c(Nc3ccc4c(c3)OCCO4)n2)c1` [R926495, N4-(3,4-Ethylenedioxyphenyl)-5-fluoro-N2-[3-(N-methylamino)carbonylmethyleneoxyphenyl]-2,4-pyrimidinediamine], the IC50 is 77 nM in assay [5]; more than 10000 nM in the assay on B-cell line BJAB; more than 10000 nM with Jurkat cells; 66 nM in assay [7]; more than 10000 nM in assay [8]; more than 10000 nM with basophil cells [2]. Besides, the IC50 was 240 nM in assay [9]; 89 nM in assay [10]; 362 nM in [12]; 100 nM in [13]; 56 nM in assay [4]. For the same compound, in [6], the “onset of inhibitory activity” value was “immediacy of the inhibitory activity”. Further, the “LAR and AHR (in words)” value in assay [11] (45 mg/sheep, 60 minutes prior to allergen challenge) was “blocked”. The “AHR (% inhibition)” value in [11] (setting [14]) came out at 41%. In addition, in [11] (setting [14]), the “EAR (% inhibition)” value is on record as 33%. In [11] (setting [14]), the “LAR (% inhibition)” value was determined as 85%. Besides, the “EAR (in words)” value in assay [11] was “greatly reduced”.
